Source: patent US20230332239A1, “METHODS OF TREATING CANCER” (ASTRAZENECA AB, priority 2019, published 2023)
Values joined by “and” are separate entries in the source; they are usually repeats but may differ in a detail not shown here. Equal values may be shown once.

Assays:
Type in all cases: in vivo, human
[1] = system: adenosine signalling signature (A2AR); test: Phase 1A study NCT02740985: adenosine signalling signature scores in pre-dose and on-treatment tumour biopsies
Excerpt: We scored transcriptome data with the signature using GSVA (60). This method is robust to outlying genes expressed at different orders of magnitude and generates scores amenable to downstream statistical interpretation. We observe a strong linear correlation between signatures representing immune processes/features and tumour purity in TCGA (see FIG. 7). To account for this bias we adjust the signature scores for tumour purity by fitting a linear regression derived from all samples in TCGA versus tumour purity and then applying the following correction:
Immune cell infiltrates were determined with an SVR approach based on CIBERSORT (36) to define relative immune cell abundance. To study the association of adenosine with CD8^+ T cell infiltration we consider CD8 high tumours to be greater than the median of CD8A expression across all samples. All other cell or cell-state signatures were scored using GSVA. NK cell exhaustion was determined using expression of KIR3DL1, KIR3DL2, IL2RA, IL15RA, HAVCR2 and EOMES. Cytotoxicity was determined using the expression of: NKG7, CST7, PRF1, GZMA, GZMB and IFNG. CD8 Exhaustion was determined using the signature provided in (Danaher et al. 2017). IFNG signalling was determined using the signature presented by (Ayers et al. 2017).
(§1) The first-in-human trial, NCT02740985, was conducted to assess safety, PK and pharmacodynamic activity of AZD4635 as monotherapy and in combination with durvalumab in patients with treatment refractory solid tumours. Pre-dose and on-treatment tumour biopsies were collected from 7 subjects who were treated with AZD4635 monotherapy at or below the maximum tolerated dose (MTD) of 100 mg PO daily.
Total RNA was extracted from tumour tissue macrodissected from […] thick FFPE sections using the miRNeasy FFPE Kit (QIAGEN). RNA integrity and quantity were assessed on the TapeStation 2200 using the RNA ScreenTape System (Agilent). […]
The RNA was subsequently analyzed for gene expression using the NanoString nCounter FLEX Analysis System and the commercially available 770-gene, human PanCancer Immune Profiling Panel (NanoString). […]

[2] = Phase 1A study NCT02740985: safety, maximum tolerated dose; details: monotherapy, PO daily, patients with treatment refractory solid tumours
Procedure: as §1

[3] = system: prostate cancer; test: Progression-free survival of prostate cancer patients in phase 1A study of AZD4635, grouped by group I signature
Procedure: To derive signatures geared toward adenosine-drive prostate cancers, time-series of samples from 96 patients prostate cancer patients enrolled in the phase 1A study of AZD4635 (NCT02740985) were collected and analyzed for gene expression by using the NanoString nCounter FLEX Analysis System and the commercially available 770-gene, human PanCancer Immune Profiling Panel (NanoString). The time series was up to 120 weeks for some patients. Signatures were tested for their concordance with progression-free survival (PFS), where progression is objective disease progression (by PSA recurrence or RECIST 1.1 criteria), or death by any cause in the absence of progression. (A concordance index of 0.5 represents random chance; a concordance index of 1 represents perfect prediction.) The concordance index, in this context, is a measure of how successful a given signature is in predicting PFS; that is, if stratifying patients into ‘adenosine-low’ and ‘adenosine-high’ groups correlated with the adenosine-high group having a longer median PFS than the adenosine-low group (patients with tumors that are more strongly adenosine drive should benefit more from treatment with the A2AR antagonist AZD4635). The stronger that correlation, the greater the concordance index.

SMILES: Cc1cc(-c2nnc(N)nc2-c2ccc(F)cc2)cc(Cl)n1 [AZD4635, 6-(2-chloro-6-methylpyridin-4-yl)-5-(4-fluorophenyl)-1,2,4-triazin-3-amine]
- patients with reduced adenosine scores who also had increases in gene expression signatures of cytolytic activity and IFNG signalling ([1]; of the 5 patients with reduced scores, out of 7 treated): 4 patients
- patients with reduced adenosine signalling scores ([1]; solid tumours, AZD4635 monotherapy once daily at or below MTD, on-treatment vs pre-dose biopsy): 5 of the 7 and 5 of 7
- share of patients with reduced adenosine signalling scores ([1]; solid tumours, AZD4635 once daily, 7 patients): 70%
- maximum tolerated dose (MTD) [2]: 100 mg
- median PFS, adenosine-low group ([3]; p=0.008 vs adenosine-high): 12 weeks
- median PFS, adenosine-high group ([3]; p=0.008 vs adenosine-low): 34 weeks
